{"source": "patent US20210290788A1", "about": "“RADIOIMMUNOCONJUGATES AND DNA DAMAGE AND REPAIR INHIBITOR COMBINATION THERAPY” (Fusion Pharmaceuticals Inc., priority 2018, published 2021)", "key": {"[1]": {"tested_on": "Colo-205 (colorectal cancer) xenograft model", "test": "Example 4 in vivo synergy study, olaparib dosing schedule 1, Colo-205 xenograft", "conditions": "[225Ac]-FPI-1434 50 nCi, olaparib 50 mg/kg i.p. 5 days on, 2 days off for 28 days, pre-dosed 3 times prior to FPI-1434, up to 28 days", "procedure": "(§1) Combination groups (n=5) were dosed with olaparib (i.p.) 5 days on, 2 days off, using a 50 mg/kg dose for 28 days. Animals were pre-dosed with olaparib 3 times prior to the [^225Ac]-FPI-1434 administration.\n(§2) Relative tumor volume was evaluated up to 28 days after administration."}, "[2]": {"tested_on": "A549 (NSCLC) xenograft model", "test": "Example 4 in vivo synergy study, olaparib dosing schedule 1, A549 xenograft", "conditions": "[225Ac]-FPI-1434 200 nCi, olaparib 50 mg/kg i.p. 5 days on, 2 days off for 28 days, pre-dosed 3 times prior to FPI-1434, up to 28 days", "procedure": "as §1"}, "[3]": {"tested_on": "A549 (NSCLC) xenograft model", "test": "Example 3 in vivo efficacy of olaparib as single agent, A549 xenograft", "procedure": "(§3) An in vivo efficacy study was conducted with olaparib alone as a single agent. Olaparib was given as a single agent at different doses in a Colo-205 (colorectal cancer) xenograft model and in an A549 (NSCLC) xenograft model. Groups of animals (n=5) were dosed with olaparib (i.p.) 5 days on, 2 days off using 10-100 mg/kg doses."}, "[4]": {"tested_on": "Colo-205 (colorectal cancer) xenograft model", "test": "Example 6 in vivo combination study at multiple dose levels, Colo-205 xenograft", "conditions": "lower effective doses: [225Ac]-FPI-1434 20 nCi, olaparib 25 mg/kg i.p. 5 days on, 2 days off from 24 hours after FPI-1434 until day 30", "procedure": "An in vivo study was conducted with [^225Ac]-FPI-1434 and olaparib in a Colo-205 (colorectal cancer) xenograft model, with [^225Ac]-FPI-1434 administered at a dose of 20 nCi, 50 nCi, or 100 nCi. In combination groups (n=5), animals were dosed with olaparib (i.p.) starting at 24 hours after [^225Ac]-FPI-1434 administration according to a 5 days on, 2 days off schedule using 25 or 50 mg/kg doses until day 30 after [^225Ac]-FPI-1434 administration (“day 0”).\nRelative tumor volume was evaluated at various time points after administration. […] FIG. 13A-13C show results using 20 nCi (FIG. 13A), 50 nCi (FIG. 13B), or 100 nCi (FIG. 13C) [^225Ac]-FPI-1434 with olaparib (25 mg/kg or 50 mg/kg)."}, "[5]": {"tested_on": "Colo-205 (colorectal cancer) xenograft model", "test": "Example 5 in vivo synergy study, olaparib dosing schedule 2, Colo-205 xenograft", "conditions": "FPI-1434 50 nCi, olaparib 50 mg/kg i.p. 5 days on, 2 days off for 28 days, first dose 24 hours after FPI-1434, up to 28 days", "procedure": "Combination groups (n=5) were dosed with olaparib (i.p.) 5 days on, 2 days off, using a 50 mg/kg dose for 28 days. The first dose of olaparib was administered 24 hours following FPI-1434 administration.\nas §2"}, "[6]": {"tested_on": "y-H2AX foci", "test": "Example 3 immunohistochemical analysis of y-H2AX foci", "assay_type": "in vivo", "conditions": "after olaparib treatment; Colo-205 and A549 xenograft study", "procedure": "as §3"}, "[7]": {"tested_on": "Colo-205 (colorectal cancer) xenograft model", "test": "Example 3 in vivo efficacy of olaparib as single agent, Colo-205 xenograft", "procedure": "as §3"}, "[8]": {"conditions": "olaparib i.p. 5 days on, 2 days off, 10-100 mg/kg"}}}
{"smiles": "O=C(c1cc(Cc2n[nH]c(=O)c3ccccc23)ccc1F)N1CCN(C(=O)C2CC2)CC1", "note": "[olaparib]", "values": [{"measurement": "Relative tumor volume", "setting": "[1]", "value": "some reduction in tumor volume over time"}, {"measurement": "Relative tumor volume", "setting": "[2]", "value": "no apparent difference in tumor volume over time"}, {"measurement": "Dose response of tumor volume effect", "setting": "[3]; olaparib 10-100 mg/kg doses", "value": "did not appear to be a dose response"}, {"measurement": "Relative tumor volume (efficacy as a single agent)", "setting": "[3]; [8]", "value": "modest efficacy as a single agent"}, {"measurement": "Relative tumor volume", "setting": "[4]", "value": "no or limited therapeutic effect"}, {"measurement": "Relative tumor volume", "setting": "[5]", "value": "significant reduction in tumor volume overtime"}, {"measurement": "DSB formation (y-H2AX foci, immunohistochemical analysis)", "setting": "[6]", "value": "no increase in DSB formation"}, {"measurement": "Dose response of tumor volume effect", "setting": "[7]; olaparib 10-100 mg/kg doses", "value": "did not appear to be a dose response"}, {"measurement": "Relative tumor volume (efficacy as a single agent)", "setting": "[7]; [8]", "value": "modest efficacy as a single agent"}]}
